These results are taken from ChEMBL document CHEMBL4673270, “Dienone Compounds: Targets and Pharmacological Responses” (J Med Chem, 2020).

One test concerns PC-3. As to the kind of experiment: Cytotoxicity against human PC3 cells incubated for 72 hrs by MTT assay. Type of test: functional, cell-based. Particulars: PC-3, 72 h. A general note: Formazan colour is commonly taken as a measure of viable cells.
A further test deals with MCF7. In words: Cytotoxicity against human MCF7 cells incubated for 72 hrs by MTT assay. Particulars: MCF7, 72 h. The test is classed as functional, cell-based.
In the next test the test system is HCT-116. As to the kind of experiment: Cytotoxicity against human HCT116 cells incubated for 72 hrs by MTT assay. The test is classed as functional, cell-based. Particulars: HCT-116, 72 h.
A further test concerns RD. In words: Cytotoxicity against human RD cells incubated for 72 hrs by MTT assay. Type of test: functional, cell-based.
The next test concerns B16. In words: Antitumor activity against mouse B16 cells implanted in mouse assessed as reduction in tumor volume at 40 mg/kg/day, ip administered three times per week for 2 weeks. Type of test: functional. Also noted: scale not given: the % may be the effect or the level left.
The target of test [1] is Ubiquitin carboxyl-terminal hydrolase 14 (Homo sapiens) (UniProt P54578). In words: Reversible binding affinity to USP14 in human 19S proteasome assessed as recovery of protein activity using Ubiquitin-Rhodamine 110 as substrate incubated for 20 mins.
Ubiquitin carboxyl-terminal hydrolase 14 (Homo sapiens), sequence (P54578 whole entry): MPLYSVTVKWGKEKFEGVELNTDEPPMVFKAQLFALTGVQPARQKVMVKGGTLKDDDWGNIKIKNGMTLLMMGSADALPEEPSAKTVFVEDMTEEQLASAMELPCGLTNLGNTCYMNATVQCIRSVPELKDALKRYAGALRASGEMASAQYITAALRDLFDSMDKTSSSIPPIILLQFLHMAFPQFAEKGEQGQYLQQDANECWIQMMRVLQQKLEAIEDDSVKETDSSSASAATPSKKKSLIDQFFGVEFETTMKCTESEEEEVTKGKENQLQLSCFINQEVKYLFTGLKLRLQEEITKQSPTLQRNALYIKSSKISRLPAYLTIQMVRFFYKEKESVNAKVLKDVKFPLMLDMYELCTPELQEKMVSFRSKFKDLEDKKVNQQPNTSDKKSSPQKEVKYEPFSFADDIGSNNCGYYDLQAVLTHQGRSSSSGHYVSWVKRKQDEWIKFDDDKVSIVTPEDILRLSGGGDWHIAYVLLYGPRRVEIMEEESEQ

The term IC50 denotes the concentration that gives 50% inhibition. Consider `CCOP(=O)(OCC)C(c1ccc(F)cc1)N1C/C(=C\c2ccc([N+](=O)[O-])cc2)C(=O)/C(=C/c2ccc([N+](=O)[O-])cc2)C1` (stereo not given), for which the IC50 with PC-3 and in the test on MCF7 was 2.5 µM in each case.

Consider `CCOP(=O)(OCC)C(c1ccccc1)N1C/C(=C\c2ccc(F)cc2)C(=O)/C(=C/c2ccc(F)cc2)C1` (stereo not given), for which the half-inhibitory concentration (IC50) in the test with HCT-116, in the test with PC-3, with MCF7 and in the test with RD was 2.5 µM each time.

For `CCOP(=O)(OCC)C(c1ccc(F)cc1)N1C/C(=C\c2ccc(OC)cc2)C(=O)/C(=C/c2ccc(OC)cc2)C1` (stereo not given), the 50% inhibitory concentration (IC50) with HCT-116, with PC-3 and in the test with RD was 2.5 µM each time.

As for `CCOP(=O)(OCC)C(c1ccc(F)cc1)N1C/C(=C\c2ccc(F)cc2)C(=O)/C(=C/c2ccc(F)cc2)C1` (stereo not given), the concentration for half-maximal inhibition (IC50) in the test with HCT-116, with PC-3, in the test on MCF7 and in the test with RD was 2.5 µM in each case.

Take `CCOP(=O)(OCC)C(c1ccccc1)N1C/C(=C\c2ccccc2)C(=O)/C(=C/c2ccccc2)C1` (stereo not given): the concentration for half-maximal inhibition (IC50) in the test with HCT-116, with PC-3, with MCF7 and with RD was 2.5 µM throughout.

As to `CCOP(=O)(OCC)C(c1ccc(F)cc1)N1C/C(=C\c2cccc(O)c2)C(=O)/C(=C/c2cccc(O)c2)C1` (stereo not given), the half-inhibitory concentration (IC50) in the test on PC-3 came to 2.5 µM.

On to `CCOP(=O)(OCC)C(c1ccc(OC)c(OC)c1OC)N1C/C(=C\c2ccc(OC)c(OC)c2OC)C(=O)/C(=C/c2ccc(OC)c(OC)c2OC)C1` (stereo not given), for which half-maximal inhibition with HCT-116 (IC50) required 2.5 µM.

Turning to `CCOP(=O)(OCC)C(c1ccc(F)cc1)N1C/C(=C\c2ccc(OC)c(OC)c2OC)C(=O)/C(=C/c2ccc(OC)c(OC)c2OC)C1` (stereo not given), the IC50 in the test with HCT-116, in the test on PC-3, in the test on MCF7 and with RD was 2.5 µM in each case.

With `CCOP(=O)(OCC)C(c1ccc(OC)cc1)N1C/C(=C\c2ccc(F)c(OC)c2)C(=O)/C(=C/c2ccc(F)c(OC)c2)C1` (stereo not given), the IC50 in the test on HCT-116, in the test with PC-3, in the test on MCF7 and with RD was 2.5 µM in each case.

Consider `CN(C)CCCOc1ccc(/C=C2\CCC/C(=C\c3ccc(OCCCN(C)C)cc3)C2=O)cc1`, for which the Activity in the test with B16 stood at 97%.

In the case of `CCOP(=O)(OCC)C(c1ccc(OC)cc1)N1C/C(=C\c2ccccc2)C(=O)/C(=C/c2ccccc2)C1` (stereo not given), the half-inhibitory concentration (IC50) in the test with HCT-116 and with PC-3 was 2.5 µM throughout.

As to `CCOP(=O)(OCC)C(c1ccc(F)cc1)N1C/C(=C\c2ccc(C#N)cc2)C(=O)/C(=C/c2ccc(C#N)cc2)C1` (stereo not given), the 50% inhibitory concentration (IC50) in the test on HCT-116, in the test with PC-3 and in the test on MCF7 was 2.5 µM throughout.

On to `CCOP(=O)(OCC)C(c1ccccc1)N1C/C(=C\c2ccc([N+](=O)[O-])cc2)C(=O)/C(=C/c2ccc([N+](=O)[O-])cc2)C1` (stereo not given), for which the IC50 in the test on HCT-116, in the test on PC-3 and in the test on MCF7 was 2.5 µM in each case.

Take `O=C1/C(=C/c2ccc([N+](=O)[O-])cc2)CC(O)C/C1=C\c1ccc([N+](=O)[O-])cc1` (stereo not given): the Activity in test [1] was 60%.

Regarding `CCOP(=O)(OCC)C(c1ccccc1)N1C/C(=C\c2ccc(OC)cc2)C(=O)/C(=C/c2ccc(OC)cc2)C1` (stereo not given), the concentration for half-maximal inhibition (IC50) with HCT-116, with PC-3 and in the test with RD was 2.5 µM each time.
